Test [1] deals with MMP1 expression by activated primary synovial fibroblasts. Description: 'MMP assay': MMP1 expression by complex trigger activated synovial fibroblasts (MMP1 ELISA). Type of test: cell-based. To be noted: Homo sapiens, Fibroblast; Table 3; RASFs, complex trigger, 48 hrs, MMP1 ELISA. (In an ELISA, binding on a coated surface is turned into a signal by an enzyme label.)
Test [2] has as its system TNFα release by human PBMCs. Description: Cytokine release by LPS stimulated human PBMCs (TNFα ELISA). Conditions: PBMC, 24 h, Table 5, LPS 1 μg/mL. The class given is cell-based.
The next test has as its target T1, MAPKAPK5 (Homo sapiens, UniProt Q8IW41).
T1 sequence (Q8IW41 1-471 isoform Q8IW41-2): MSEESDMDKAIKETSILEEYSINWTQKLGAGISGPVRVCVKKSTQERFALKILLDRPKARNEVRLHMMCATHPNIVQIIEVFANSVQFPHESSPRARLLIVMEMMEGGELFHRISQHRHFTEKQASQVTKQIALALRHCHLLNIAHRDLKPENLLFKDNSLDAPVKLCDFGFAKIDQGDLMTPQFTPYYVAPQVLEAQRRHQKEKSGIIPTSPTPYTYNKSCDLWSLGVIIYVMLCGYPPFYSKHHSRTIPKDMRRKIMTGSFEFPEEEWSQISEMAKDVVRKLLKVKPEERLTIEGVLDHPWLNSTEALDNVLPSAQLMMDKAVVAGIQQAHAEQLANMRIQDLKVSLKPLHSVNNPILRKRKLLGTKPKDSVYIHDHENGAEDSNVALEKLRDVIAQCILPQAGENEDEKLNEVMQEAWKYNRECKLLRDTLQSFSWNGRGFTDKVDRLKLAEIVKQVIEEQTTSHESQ
Put plainly: MAPKAP-K5 assay (FlashPlate kinase assay).

Method for MAPKAPK5: MAPKAP-K5 reactions are performed in FlashPlate format using 0.1 or 0.2 μCi 33P-ATP; 0.6 μM ATP; 1 mU MAPKAP-K5; 3 μM MAPKAP-K5 peptide substrate, incubated at room temperature for 30 minutes.
The MAPKAP-K5 kinase reaction is performed in a 384 well polypropylene plate (Matrix Technologies) and then transferred to a streptavidin-coated 384 well flashplate (Perkin-Elmer).
To wells containing 2 μL test compound or standard inhibitor, 13 μL Enzyme mix or diluent are added using a Hydra (Robbins Scientific).
Reactions are started by addition of 10 μL of [2,5×] substrate cocktail using a Multidrop (Thermo-Labsystems), to give final concentrations in the assay of:
Plates are incubated at room temperature for 30 minutes.
Reactions are terminated by the addition of 25 μL EDTA (50 mM) to each well using a Micro-fill (Biotek).
Reactions are transferred to a streptavidin-coated flashplate using a Zymark robotic system. Plates are incubated for 60 minutes at room temperature.
All wells are washed 3 times with 100 μl phosphate buffered saline using a Tecan plate washer.
Radioactivity is determined by scintillation counting of the flashplate (empty wells) on a Packard TopCount.
Enzyme Mix: • Enzyme • 50 mM Tris Hcl (pH 7.5) • 0.1 mM EGTA • 2 mM DTT • 1 mg/mL BSA
Reaction Buffer: • 50 mM Tris Hcl (pH 7.5) • 0.1 mM EGTA • 10 mM Magnesium acetate • 2 mM DTT

In general, EC50 refers to the midpoint of the concentration-response curve. Lower therefore signals an effect from little substance. For orientation: IC50 means the midpoint of a concentration-inhibition curve. Low readings indicate greater potency, high ones weaker potency. In the case of `CC(C)N1CCN(c2ccc(Nc3ncc(-c4csc(C(N)=O)n4)n4ncnc34)cc2)CC1` [Compound 62, 4-{8-[4-(4-Isopropylpiperazin-1-yl)phenylamino]-[1,2,4]triazolo[1,5-a]pyrazin-5-yl}thiazole-2-carboxylic acid amide], the figures for the EC50 in test [1] and in test [2] were above 1000 nM and 501 to 1000 nM, respectively. At MAPKAPK5, this compound showed an IC50 of 501 to 1000 nM.

Consider `NC(=O)c1cc(-c2cnc(Nc3ccc(C4CCN(CC(F)(F)F)CC4)cc3)c3ncnn23)cs1` [Compound 63, 4-(8-{4-[1-(2,2,2-Trifluoroethyl)piperidin-4-yl]phenylamino}-[1,2,4]triazolo[1,5-a]pyrazin-5-yl)thiophene-2-carboxylic acid amide], for which the EC50 in test [1] was 101 to 500 nM; in test [2], above 1000 nM. In addition, the IC50 at MAPKAPK5 is above 1000 nM.

For `FC(F)(F)CN1CCC(c2ccc(Nc3ncc(-c4cn[nH]c4)n4ncnc34)cc2)CC1` [Compound 64], the EC50 in test [1] and in test [2] was above 1000 nM each time. At MAPKAPK5, the IC50 was above 1000 nM.

In the case of `O=C1NCc2cc(-c3cnc(Nc4ccc(OCCN5CCOCC5)cc4)c4ncnn34)ccc21` [Compound 65, 5-(8-(4-(2-Morpholinoethoxy)phenylamino)-[1,2,4]triazolo[1,5-a]pyrazin-5-yl)isoindolin-1-one], the figures for the EC50 in test [1] and in test [2] were 101 to 500 nM and above 1000 nM, respectively. For the same compound, the IC50 against MAPKAPK5 is 101 to 500 nM.

With `c1nc2c(Nc3ccc(N4CCOCC4)cc3)ncc(-c3ccc4ncsc4c3)n2n1` [Compound 66], the EC50 in test [1] is 501 to 1000 nM; in test [2] it was above 1000 nM. On MAPKAPK5, this compound had an IC50 above 1000 nM.

For `Fc1cc(N2CCOCC2)ccc1Nc1ncc(-c2cn[nH]c2)n2ncnc12` [Compound 67, N-(2-Fluoro-4-morpholinophenyl)-5-(1H-pyrazol-4-yl)-[1,2,4]triazolo[1,5-a]pyrazin-8-amine], the EC50 in test [1] and in test [2] was above 1000 nM each time. Further, the IC50 on MAPKAPK5 is above 1000 nM.

As to `Clc1cc(N2CCOCC2)ccc1Nc1ncc(-c2cn[nH]c2)n2ncnc12` [Compound 68], the EC50 in test [1] and in test [2] was above 1000 nM each time. Moreover, the IC50 on MAPKAPK5 is above 1000 nM.

For the compound `CC(=O)c1ccc(-c2cnc(Nc3ccc(N4CCOCC4)cc3)c3ncnn23)s1` [Compound 69], the EC50 in test [1] and in test [2] was above 1000 nM each time. This compound showed an IC50 on MAPKAPK5 above 1000 nM.

Consider `OCc1n[nH]cc1-c1cnc(Nc2ccc(N3CCOCC3)cc2)c2ncnn12` [Compound 70, (4-(8-(4-Morpholinophenylamino)-[1,2,4]triazolo[1,5-a]pyrazin-5-yl)-1H-pyrazol-5-yl)methanol], for which the EC50 in test [1] and in test [2] was above 1000 nM in each case. Besides, the IC50 against MAPKAPK5 was above 1000 nM.

`O=C1CCC(c2ccc(-c3cnc(Nc4ccc(N5CCOCC5)cc4)c4ncnn34)cc2)=NN1` [Compound 71]: the EC50 in test [1] and in test [2] was above 1000 nM throughout. The IC50 on MAPKAPK5 is above 1000 nM.

For the compound `c1nc2c(Nc3ccc(N4CCOCC4)cc3)ncc(-c3ccc4nonc4c3)n2n1` [Compound 72], the EC50 in test [1] and in test [2] was above 1000 nM throughout. Moreover, at MAPKAPK5, the IC50 is above 1000 nM.

For the compound `CNC(=O)c1nc(-c2cnc(Nc3ccc(N4CCOCC4)cc3)c3ncnn23)cs1` [Compound 73, 4-[8-(4-Morpholin-4-yl-phenylamino)-[1,2,4]triazolo[1,5-a]pyrazin-5-yl]-thiazole-2-carboxylic acid methylamide], the EC50 in test [1] and in test [2] was above 1000 nM throughout. The compound further came in with an IC50 on MAPKAPK5 above 1000 nM.

Take `CNC(=O)c1nc(-c2cnc(Nc3ccc(N4CCN(C(C)C)CC4)cc3)c3ncnn23)cs1` [Compound 74]: the EC50 in test [1] and in test [2] was above 1000 nM throughout. At MAPKAPK5, this compound came in with an IC50 above 1000 nM.

`O=C1NCc2cc(-c3cnc(Nc4ccc(N5CCOCC5)cc4F)c4ncnn34)ccc21` [Compound 75]: the EC50 in test [1] and in test [2] was above 1000 nM each time. The same compound showed an IC50 at MAPKAPK5 above 1000 nM.

Consider `O=C1NCc2cc(-c3cnc(Nc4ccc(N5CCOCC5)cc4Cl)c4ncnn34)ccc21` [Compound 76], for which the results for the EC50 in test [1] and in test [2] were 501 to 1000 nM and above 1000 nM, respectively. Also, on MAPKAPK5, the IC50 is above 1000 nM.

As to `CC(C)N1CCN(c2ccc(Nc3ncc(-c4ccc5c(c4)CNC5=O)n4ncnc34)c(Cl)c2)CC1` [Compound 77], the EC50 in test [1] and in test [2] was above 1000 nM in each case. This compound yielded an IC50 on MAPKAPK5 of 101 to 500 nM.

As to `Nc1ncc(-c2cnc(Nc3ccc(N4CCOCC4)cc3)c3ncnn23)cn1` [Compound 78], the EC50 was above 1000 nM in test [1] and 501 to 1000 nM in test [2]. At MAPKAPK5, this compound came in with an IC50 above 1000 nM.

Consider `CC(C)N1CCN(c2ccc(Nc3ncc(-c4ccc5c(c4)CNC5=O)n4ncnc34)cn2)CC1` [Compound 79, 5-(8-(6-(4-Isopropylpiperazin-1-yl)pyridin-3-ylamino)-[1,2,4]triazolo[1,5-a]pyrazin-5-yl)isoindolin-1-one], for which the EC50 in test [1] is 501 to 1000 nM; in test [2], above 1000 nM. At MAPKAPK5, this compound registered an IC50 of 1 to 100 nM.

Regarding `CC(C)N1CCN(c2ccc(Nc3ncc(-c4csc5c(C(N)=O)cccc45)n4ncnc34)cc2)CC1` [Compound 81, 3-{8-[4-(4-Isopropylpiperazin-1-yl)phenylamino]-[1,2,4]triazolo[1,5-a]pyrazin-5-yl}benzo[b]thiophene-7-carboxylic acid amide], the EC50 in test [1] and in test [2] was above 1000 nM throughout. In addition, the IC50 at MAPKAPK5 is above 1000 nM.

As to `CC(C)N1CCC(c2ccc(Nc3ncc(-c4cn[nH]c4)n4ncnc34)cc2)CC1` [Compound 84, [4-(1-Isopropylpiperidin-4-yl)phenyl]-[5-(1H-pyrazol-4-yl)-[1,2,4]triazolo[1,5-a]pyrazin-8-yl]amine], the EC50 in test [1] and in test [2] was above 1000 nM each time. For the same compound, the IC50 against MAPKAPK5 was in the range of 501 to 1000 nM.

As to `Nc1nc(-c2ccc(-c3cnc(Nc4ccc(N5CCOCC5)cc4)c4ncnn34)cc2)cs1` [Compound 85], the EC50 in test [1] and in test [2] was above 1000 nM throughout. On MAPKAPK5, this compound showed an IC50 above 1000 nM.

On to `CC(C)N1CCN(c2ccc(Nc3ncc(-c4coc(C(N)=O)c4)n4ncnc34)cn2)CC1` [Compound 86, 4-(8-(6-(4-Isopropylpiperazin-1-yl)pyridin-3-ylamino)-[1,2,4]triazolo[1,5-a]pyrazin-5-yl)furan-2-carboxamide], for which the EC50 in test [1] and in test [2] was above 1000 nM in each case. On MAPKAPK5, this compound showed an IC50 of 1 to 100 nM.

Turning to `O=C1NCc2cc(-c3cnc(Nc4ccc(N5CCOCC5)nc4)c4ncnn34)ccc21` [Compound 87], the EC50 in test [1] was 101 to 500 nM; in test [2], above 1000 nM. The IC50 against MAPKAPK5 is 1 to 100 nM.

In the case of `CC(C)N1CCC(c2ccc(Nc3ncc(-c4csc(C(N)=O)c4)n4ncnc34)cc2)CC1` [Compound 89, 4-{8-[4-(1-Isopropylpiperidin-4-yl)phenylamino]-[1,2,4]triazolo[1,5-a]pyrazin-5-yl}-thiophene-2-carboxylic acid amide], the EC50 in test [1] is 501 to 1000 nM; in test [2], above 1000 nM. At MAPKAPK5, this compound returned an IC50 of 1 to 100 nM.

`CC(C)N1CCN(c2ccc(Nc3ncc(-c4ccnc(CO)c4)n4ncnc34)cn2)CC1` [Compound 90, (4-{8-[6-(4-Isopropylpiperazin-1-yl)pyridin-3-ylamino]-[1,2,4]triazolo[1,5-a]pyrazin-5-yl}pyridin-2-yl)methanol]: the EC50 in test [1] and in test [2] was above 1000 nM throughout. The IC50 against MAPKAPK5 was above 1000 nM.

For the compound `CC(C)N1CCN(c2ccc(Nc3ncc(-c4ccnc(CF)c4)n4ncnc34)cc2)CC1` [Compound 91], the EC50 in test [1] and in test [2] was above 1000 nM each time. At MAPKAPK5, this compound showed an IC50 above 1000 nM.

With `CC(C)N1CCC(c2ccc(Nc3ncc(-c4ccc5c(c4)CNC5=O)n4ncnc34)cc2)CC1` [Compound 92, 5-{8-[4-(1-Isopropylpiperidin-4-yl)phenylamino]-[1,2,4]triazolo[1,5-a]pyrazin-5-yl}-2,3-dihydroisoindol-1-one], the results for the EC50 in test [1] and in test [2] were 101 to 500 nM and above 1000 nM, respectively. This compound also displayed an IC50 at MAPKAPK5 of 1 to 100 nM.

As for `NC(=O)c1cc(-c2cnc(Nc3ccc(N4CCOCC4)nc3)c3ncnn23)co1` [Compound 94], the EC50 in test [1] and in test [2] was above 1000 nM each time. The compound also yielded a concentration for half-maximal inhibition (IC50) on MAPKAPK5 of 1 to 100 nM.

Consider `O=C1NCc2cc(-c3cnc(Nc4cnc(N5CCOCC5)nc4)c4ncnn34)ccc21` [Compound 99], for which the half-maximal effective concentration (EC50) in test [1] was above 1000 nM; in test [2] it was 501 to 1000 nM. Moreover, the IC50 on MAPKAPK5 lay within 101 to 500 nM.

On to `CC(C)N1CCN(c2ncc(Nc3ncc(-c4ccc5c(c4)CNC5=O)n4ncnc34)cn2)CC1` [Compound 101], for which the EC50 in test [1] and in test [2] was above 1000 nM in each case. The same compound came in with an IC50 on MAPKAPK5 of 101 to 500 nM.

Consider `CC(C)(C)N1CCN(c2ccc(Nc3ncc(-c4ccc5c(c4)CNC5=O)n4ncnc34)cc2)CC1` [Compound 102, 5-{8-[4-(4-tert-Butyl-piperazin-1-yl)-phenylamino]-[1,2,4]triazolo[1,5-a]pyrazin-5-yl}-2,3-dihydro-isoindol-1-one], for which the concentration giving a half-maximal response (EC50) in test [1] and in test [2] was above 1000 nM each time. Moreover, on MAPKAPK5, the IC50 was 1 to 100 nM.

In the case of `CC(C)(C)N1CCN(c2ccc(Nc3ncc(-c4cn[nH]c4)n4ncnc34)cc2)CC1` [Compound 103], the EC50 in test [1] is 501 to 1000 nM; in test [2], 101 to 500 nM. In addition, the IC50 against MAPKAPK5 fell in the range of 501 to 1000 nM.

(Values after patent US20100298300A1, “TRIAZOLOPYRAZINE COMPOUNDS USEFUL FOR THE TREATMENT OF DEGENERATIVE & INFLAMMATORY DISEASES” (priority 2006, published 2010).)
